Data taken from US20100016547A1, “Glycosilated Peptide and Medicine Comprising It as an Effective Ingredient” (priority 2005, published 2010).

Key:
GLP-1 receptor [1] = target: T1, GLP-1 receptor (Homo sapiens, UniProt P43220)
Protocol: After being incubated at room temperature for 2 hours, the solution was filtered through a unifilter 96GF/C plate (Perkin-Elmer) pretreated with 1% polyethylenimine containing 0.5% BSA, washed with 25 mM HEPES buffer solution (pH 7.4) containing 0.5% BSA, and radioactivity remained on the filter was measured by a gamma counter (Top Counter; Perkin-Elmer).

GLP-1 receptor [2] = target: T1, GLP-1 receptor; assay: Assay for production of cAMP
Protocol: Assay for Production of cAMP
After stirring at room temperature for an hour, the cells were lysed with Triton X-100 (final concentration: 1%).
Quantity of cAMP was determined using cAMP Femtomolar Kit (CIS Bio International). The reaction solution (1 μL) was moved to a new 384-well plate and diluted by adding 9 μL of dilution buffer. Next, each 5 μL of cAMP-XL665 solution and anti-cAMP cryptate solution of the Kit was added, the mixture was incubated at room temperature for an hour, and time-resolved fluorescence was measured using RUBYstar (BMG LABTECH).

T1 sequence (P43220 24-463, species assumed): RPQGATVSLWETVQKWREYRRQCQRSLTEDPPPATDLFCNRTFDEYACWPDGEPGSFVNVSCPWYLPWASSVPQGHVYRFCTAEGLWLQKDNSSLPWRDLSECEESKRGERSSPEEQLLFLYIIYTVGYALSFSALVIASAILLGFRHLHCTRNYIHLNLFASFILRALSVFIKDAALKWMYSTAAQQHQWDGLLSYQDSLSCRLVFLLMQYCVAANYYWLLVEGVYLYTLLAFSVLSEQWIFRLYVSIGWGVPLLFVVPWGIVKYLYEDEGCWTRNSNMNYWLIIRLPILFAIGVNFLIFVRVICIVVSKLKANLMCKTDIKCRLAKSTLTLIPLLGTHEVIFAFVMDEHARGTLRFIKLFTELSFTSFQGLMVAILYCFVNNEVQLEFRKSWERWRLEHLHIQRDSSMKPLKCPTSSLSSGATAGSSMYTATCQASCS

## CC[C@H](C)[C@H](NC(=O)[C@H](Cc1ccccc1)NC(=O)[C@H](CCC(=O)O)NC(=O)[C@H](CCCCN)NC(=O)[C@H](C)NC(=O)[C@H](C)NC(=O)[C@H](CCC(N)=O)NC(=O)CNC(=O)[C@H](CCC(=O)O)NC(=O)[C@H](CC(C)C)NC(=O)[C@H](Cc1ccc(O)cc1)NC(=O)[C@H](CO)NC(=O)[C@H](CO)NC(=O)[C@@H](NC(=O)[C@H](CC(=O)O)NC(=O)[C@H](CO)NC(=O)[C@@H](NC(=O)[C@H](Cc1ccccc1)NC(=O)[C@@H](NC(=O)CNC(=O)[C@H](CCC(=O)O)NC(=O)[C@H](C)NC(=O)[C@@H](N)Cc1c[nH]cn1)[C@@H](C)O)[C@@H](C)O)C(C)C)C(=O)N[C@@H](C)C(=O)N[C@@H](Cc1c[nH]c2ccccc12)C(=O)N[C@@H](CC(C)C)C(=O)N[C@H](C(=O)N[C@@H](CSCC(=O)N[C@@H](CC(=O)N[C@@H]1O[C@H](CO)[C@@H](O[C@@H]2O[C@H](CO)[C@@H](O[C@@H]3O[C@H](CO[C@H]4O[C@H](CO)[C@@H](O)[C@H](O)[C@@H]4O[C@@H]4O[C@H](CO)[C@@H](O[C@@H]5O[C@H](CO[C@]6(C(=O)O)C[C@H](O)[C@@H](NC(C)=O)[C@H]([C@H](O)[C@H](O)CO)O6)[C@H](O)[C@H](O)[C@H]5O)[C@H](O)[C@H]4NC(C)=O)[C@@H](O)[C@H](O[C@H]4O[C@H](CO)[C@@H](O)[C@H](O)[C@@H]4O[C@@H]4O[C@H](CO)[C@@H](O[C@@H]5O[C@H](CO[C@]6(C(=O)O)C[C@H](O)[C@@H](NC(C)=O)[C@H]([C@H](O)[C@H](O)CO)O6)[C@H](O)[C@H](O)[C@H]5O)[C@H](O)[C@H]4NC(C)=O)[C@@H]3O)[C@H](O)[C@H]2NC(C)=O)[C@H](O)[C@H]1NC(C)=O)C(=O)O)C(=O)NCC(=O)N[C@@H](CCCNC(=N)N)C(N)=O)C(C)C [GL34CE1]
GLP-1 receptor [1]
  IC50: 3.5 nM
GLP-1 receptor [2]
  EC50: 0.72 nM

## CC[C@H](C)[C@H](NC(=O)[C@H](Cc1ccccc1)NC(=O)[C@H](CCC(=O)O)NC(=O)[C@H](CC(N)=O)NC(=O)[C@H](C)NC(=O)[C@H](C)NC(=O)[C@H](CCC(N)=O)NC(=O)CNC(=O)[C@H](CCC(=O)O)NC(=O)[C@H](CC(C)C)NC(=O)[C@H](Cc1ccc(O)cc1)NC(=O)[C@H](CO)NC(=O)[C@H](CO)NC(=O)[C@@H](NC(=O)[C@H](CC(=O)O)NC(=O)[C@H](CO)NC(=O)[C@@H](NC(=O)[C@H](Cc1ccccc1)NC(=O)[C@@H](NC(=O)CNC(=O)[C@H](CCC(=O)O)NC(=O)[C@H](C)NC(=O)[C@@H](N)Cc1c[nH]cn1)[C@@H](C)O)[C@@H](C)O)C(C)C)C(=O)N[C@@H](C)C(=O)N[C@@H](Cc1c[nH]c2ccccc12)C(=O)N[C@@H](CC(C)C)C(=O)N[C@H](C(=O)N[C@@H](CCCCN)C(=O)NCC(=O)N[C@@H](CCCNC(=N)N)C(N)=O)C(C)C [GL26N]
GLP-1 receptor [2]
  EC50: 0.09 nM

## CC[C@H](C)[C@H](NC(=O)[C@H](Cc1ccccc1)NC(=O)[C@H](CCC(=O)O)NC(=O)[C@H](CCCCN)NC(=O)[C@H](C)NC(=O)[C@H](C)NC(=O)[C@H](CCC(N)=O)NC(=O)CNC(=O)[C@H](CCC(=O)O)NC(=O)[C@H](CC(C)C)NC(=O)[C@H](Cc1ccc(O)cc1)NC(=O)[C@H](CO)NC(=O)[C@H](CO)NC(=O)[C@@H](NC(=O)[C@H](CC(=O)O)NC(=O)[C@H](CO)NC(=O)[C@@H](NC(=O)[C@H](Cc1ccccc1)NC(=O)[C@@H](NC(=O)CNC(=O)[C@H](CCC(=O)O)NC(=O)[C@H](C)NC(=O)[C@@H](N)Cc1c[nH]cn1)[C@@H](C)O)[C@@H](C)O)C(C)C)C(=O)N[C@@H](C)C(=O)N[C@@H](Cc1c[nH]c2ccccc12)C(=O)N[C@@H](CC(C)C)C(=O)N[C@H](C(=O)N[C@@H](CC(N)=O)C(=O)NCC(=O)N[C@@H](CCCNC(=N)N)C(N)=O)C(C)C [GL34N]
GLP-1 receptor [1]
  IC50: 1 nM
GLP-1 receptor [2]
  EC50: 0.11 nM

## CC[C@H](C)[C@H](NC(=O)[C@H](Cc1ccccc1)NC(=O)[C@H](CCC(=O)O)NC(=O)[C@H](CCCCN)NC(=O)[C@H](C)NC(=O)[C@H](C)NC(=O)[C@H](CCC(N)=O)NC(=O)CNC(=O)[C@H](CCC(=O)O)NC(=O)[C@H](CC(C)C)NC(=O)[C@H](Cc1ccc(O)cc1)NC(=O)[C@H](CO)NC(=O)[C@H](CO)NC(=O)[C@@H](NC(=O)[C@H](CC(=O)O)NC(=O)[C@H](CO)NC(=O)[C@@H](NC(=O)[C@H](Cc1ccccc1)NC(=O)[C@@H](NC(=O)CNC(=O)[C@H](CCC(=O)O)NC(=O)[C@H](C)NC(=O)[C@@H](N)Cc1c[nH]cn1)[C@@H](C)O)[C@@H](C)O)C(C)C)C(=O)N[C@@H](C)C(=O)N[C@@H](Cc1c[nH]c2ccccc12)C(=O)N[C@@H](CC(C)C)C(=O)N[C@H](C(=O)N[C@@H](CC(=O)N[C@@H]1O[C@H](CO)[C@@H](O[C@@H]2O[C@H](CO)[C@@H](O[C@@H]3O[C@H](CO[C@H]4O[C@H](CO)[C@@H](O)[C@H](O)[C@@H]4O[C@@H]4O[C@H](CO)[C@@H](O[C@@H]5O[C@H](CO[C@]6(C(=O)O)C[C@H](O)[C@@H](NC(C)=O)[C@H]([C@H](O)[C@H](O)CO)O6)[C@H](O)[C@H](O)[C@H]5O)[C@H](O)[C@H]4NC(C)=O)[C@@H](O)[C@H](O[C@H]4O[C@H](CO)[C@@H](O)[C@H](O)[C@@H]4O[C@@H]4O[C@H](CO)[C@@H](O[C@@H]5O[C@H](CO[C@]6(C(=O)O)C[C@H](O)[C@@H](NC(C)=O)[C@H]([C@H](O)[C@H](O)CO)O6)[C@H](O)[C@H](O)[C@H]5O)[C@H](O)[C@H]4NC(C)=O)[C@@H]3O)[C@H](O)[C@H]2NC(C)=O)[C@H](O)[C@H]1NC(C)=O)C(=O)NCC(=O)N[C@@H](CCCNC(=N)N)C(N)=O)C(C)C [GL34NE1]
GLP-1 receptor [1]
  IC50: 2.7 nM

## CC[C@H](C)[C@H](NC(=O)[C@H](Cc1ccccc1)NC(=O)[C@H](CS)NC(=O)[C@H](CCCNC(=N)N)NC(=O)[C@@H](NC(=O)[C@H](C)NC(=O)[C@H](CCC(=O)O)NC(=O)[C@H](CCC(=O)O)NC(=O)[C@H](CCC(=O)O)NC(=O)[C@H](CCSC)NC(=O)[C@H](CCC(N)=O)NC(=O)[C@H](CCCCN)NC(=O)[C@H](CO)NC(=O)[C@H](CC(C)C)NC(=O)[C@H](CC(=O)O)NC(=O)[C@H](CO)NC(=O)[C@@H](NC(=O)[C@H](Cc1ccccc1)NC(=O)[C@@H](NC(=O)CNC(=O)[C@H](CCC(=O)O)NC(=O)CNC(=O)[C@@H](N)Cc1c[nH]cn1)[C@@H](C)O)[C@@H](C)O)C(C)C)C(=O)N[C@@H](CCC(=O)O)C(=O)N[C@@H](Cc1c[nH]c2ccccc12)C(=O)N[C@@H](CC(C)C)C(=O)N[C@@H](CCCCN)C(=O)N[C@@H](CS)C(=O)NCC(=O)NCC(=O)N1CCC[C@H]1C(=O)N[C@@H](CO)C(=O)N[C@@H](CO)C(=O)NCC(=O)N[C@@H](CS)C(=O)N1CCC[C@H]1C(=O)N1CCC[C@H]1C(=O)N1CCC[C@H]1C(=O)N[C@@H](CO)C(=O)N[C@@H](CS)C(N)=O [EX21283540C]
GLP-1 receptor [2]
  EC50: 0.055 nM

## CC[C@H](C)[C@H](NC(=O)[C@H](Cc1ccccc1)NC(=O)[C@H](CCC(=O)O)NC(=O)[C@H](CCCCN)NC(=O)[C@H](C)NC(=O)[C@H](C)NC(=O)[C@H](CCC(N)=O)NC(=O)CNC(=O)[C@H](CCC(=O)O)NC(=O)[C@H](CC(C)C)NC(=O)[C@H](Cc1ccc(O)cc1)NC(=O)[C@H](CO)NC(=O)[C@H](CO)NC(=O)[C@@H](NC(=O)[C@H](CC(=O)O)NC(=O)[C@H](CO)NC(=O)[C@@H](NC(=O)[C@H](Cc1ccccc1)NC(=O)[C@@H](NC(=O)CNC(=O)[C@H](CCC(=O)O)NC(=O)[C@H](C)NC(=O)[C@@H](N)Cc1c[nH]cn1)[C@@H](C)O)[C@@H](C)O)C(C)C)C(=O)N[C@@H](C)C(=O)N[C@@H](Cc1c[nH]c2ccccc12)C(=O)N[C@@H](CC(C)C)C(=O)N[C@H](C(=O)N[C@@H](CC(=O)N[C@@H]1O[C@H](CO)[C@@H](O[C@@H]2O[C@H](CO[C@]3(C(=O)O)C[C@H](O)[C@@H](NC(C)=O)[C@H]([C@H](O)[C@H](O)CO)O3)[C@H](O)[C@H](O)[C@H]2O)[C@H](O)[C@H]1NC(C)=O)C(=O)NCC(=O)N[C@@H](CCCNC(=N)N)C(N)=O)C(C)C [GL34NS6]
GLP-1 receptor [1]
  IC50: 0.7 nM
